Data from US20230165864A1, “APPLICATION OF HETEROCYCLIC COMPOUND” (GUANGZHOU JOYO PHARMATECH CO., LTD, priority 2020, published 2023).

What was measured:
[1] = Phase III clinical trial (N=287); cited from earlier work
[2] = Bioavailability experiments (pharmacokinetics) in beagle dogs; format: in vivo; settings: male and female beagle dogs
Protocol: Bioavailability Experiments
During the experimental period, animals were housed in single cages with animal identification codes marked on the cage tags. The 12 non-naïve beagle dogs (6/sex) were randomly divided into 2 groups (3/sex/group).
(§1) (1) Non-naïve beagle dogs were administered intravenously (solvent 50% PEG400+50% PBS) at a dose volume of 2 mL/kg per dog (dose of 0.1 mg/kg per dog), and then blood was collected to measure the plasma drug concentration of non-naïve beagle dogs at different time points of 15 minutes, 30 minutes, 1 hour, 2 hours, 4 hours, 6 hours, 8 hours, and 24 hours.
as §1, with “(2)” for “(1)”, “orally” for “intravenously (solvent 50% PEG400+50% PBS)”, “1 tablet” for “2 mL/kg”, “0.5 mg” for “0.1 mg/kg”, “hours; the oral bioavailability of tablets was calculated.” for “hours.”
Plasma drug concentration data was processed in a non-compartment model using WinNonlin™ Version 6.2.1 (Pharsight, Mountain View, Calif.) pharmacokinetic software. The peak concentration (Cmax), peak time (Tmax) and quantifiable time were directly read out from the plasma drug concentration-time diagram.
The following pharmacokinetic parameters were calculated using the log-linear trapezoidal method: elimination phase half-life (T1/2), apparent volume of distribution (Vdss) and clearance rate (CL), mean residence time of the drug from 0 to the end time point in vivo (MRT0-last), mean residence time of the drug from 0 to infinite time in vivo (MRT0-inf), the area under the time-plasma concentration curve from 0 to the end time point (AUC0-last), the area under the time-plasma concentration curve from 0 to infinite time (AUC0-inf), initial concentration (C0).

[3] = Clinical trial study of tablets containing compound 11A: fasting blood glucose and safety; format: in vivo, human
Protocol: The embodiments were all derived from a clinical trial study. The subjects were screened and eligible to enter groups according to the entry criteria specified in the clinical protocol. The test drug was administered orally on day 1, and adverse events and combined administration were observed and recorded after administration. After safety evaluation was conducted on day 7 of the single administration period, the subjects received continuous administration of the test drug until the subjects withdrew from the clinical trial. Safety assessments were conducted during the clinical trial according to the time specified in the clinical protocol.
Embodiments 2 to 9 were derived from an ongoing clinical trial study with dose groups of 0.1 mg, 0.2 mg, 0.4 mg, 0.5 mg, 0.7 mg, 0.9 mg, 1.1 mg, and 1.4 mg.

SMILES: Cc1nc(NC(=O)N2CCC[C@H]2C(N)=O)sc1-c1ccnc(C(C)(C)C(F)(F)F)c1 [Alpelisib]
- diarrhea incidence [1]: 57.7%
- diarrhea incidence above grade 3 [1]: 6.7%
- nausea incidence [1]: 44.7%
- nausea incidence above grade 3 [1]: 2.5%
- vomiting incidence [1]: 27.1%
- vomiting incidence above grade 3 [1]: 0.7%

SMILES: COCCOc1cnc2ccc(-c3cnc(OC)c(NS(=O)(=O)c4sc(C)nc4C)c3)cn2c1=O [Compound 11A]
- Vd ([2]; both sexes, dog, plasma, single intravenous injection 0.1 mg/kg, read-out: apparent volume of distribution (Vdss)): 6.16 ± 1.91 L/kg
- AUC(0-t) ([2]; both sexes, dog, plasma, single intravenous injection 0.1 mg/kg, read-out: area under the curve AUC0-last): 0.114 ± 0.0276 µM·h
- half-life ([2]; both sexes, dog, plasma, single intravenous injection 0.1 mg/kg, read-out: mean plasma elimination phase half-life Tin (converted)): 3.21 ± 1.81 h
- clearance ([2]; both sexes, dog, plasma, single intravenous injection 0.1 mg/kg, read-out: plasma clearance rate (CL)): 24.6 ± 6.66 mL/min/kg
- bioavailability ([2]; both sexes, dog, plasma, single oral administration of tablet containing 0.5 mg of 11A (prescription of embodiment 1)): 80.9%
- Cmax ([2]; both sexes, dog, plasma, single oral administration of tablet containing 0.5 mg of 11A (prescription of embodiment 1), read-out: peak concentration (Cmax)): 11.1 ± 2.08 nM
- peak times ([2]; single oral administration of tablet containing 0.5 mg of 11A (prescription of embodiment 1)): 1.00 ± 0.00 h
- fasting blood glucose ([3]; Subject 1, tablet 0.1 mg once a day oral from Nov. 9, 2018, follow-up Mar. 14, 2019, baseline 5.64 mmol/L): 6.19 mmol/L
- fasting blood glucose ([3]; Subject 2, tablet 0.2 mg once a day oral from Jan. 16, 2019, follow-up Jan. 23, 2019, baseline 5.81 mmol/L): 6.45 mmol/L
- fasting blood glucose ([3]; Subject 3, tablet 0.4 mg once a day oral from May 30, 2019, follow-up Jun. 5, 2019, baseline 5.63 mmol/L): 6.99 mmol/L
- fasting blood glucose ([3]; Subject 5, tablet 0.7 mg once a day oral from Nov. 7, 2019, follow-up Nov. 13, 2019, baseline 6.06 mmol/L): 8.37 mmol/L
- fasting blood glucose ([3]; Subject 5, tablet 0.7 mg once a day oral from Nov. 7, 2019, follow-up Nov. 20, 2019, baseline 6.06 mmol/L): 9.44 mmol/L
- fasting blood glucose ([3]; Subject 6, 0.7 mg tablet administered continuously again from Nov. 30, 2019, follow-up Dec. 4, 2019): 11.44 mmol/L
- fasting blood glucose after stopping administration ([3]; Subject 6, 0.7 mg tablets stopped Nov. 27, 2019, measured Nov. 29, 2019): returned to normal
- fasting blood glucose ([3]; Subject 6, tablet 0.7 mg once a day oral from Nov. 21, 2019, follow-up Nov. 27, 2019, baseline 5.87 mmol/L): 11.4 mmol/L
- fasting blood glucose ([3]; Subject 7, tablet 0.7 mg once a day oral from Dec. 10, 2019, follow-up Jan. 20, 2020, baseline 5.92 mmol/L): 9.13 mmol/L
- fasting blood glucose ([3]; Subject 8, tablet 1.1 mg once a day oral from Dec. 17, 2019 (so in the source), measured Dec. 23, 2020, baseline 6.87 mmol/L): 12.66 mmol/L
- fasting blood glucose ([3]; Subject 9, tablet 1.4 mg once a day oral from Aug. 27, 2020, measured Sep. 2, 2020, baseline 5.94 mmol/L): 10.77 mmol/L
- incidence of hyperglycemia ([3]; subjects of dose groups 0.1-1.4 mg, during the administering period): 80%
- gastrointestinal side effects such as nausea, vomiting and diarrhea ([3]; the 8 subjects of embodiments 2 to 9): no significant gastrointestinal side effects
